Reference: patent US9040538B2, “Pyrimidines as novel therapeutic agents” (Universite Laval, priority 2009, dated 2015)

What was measured:
[1] = test system: rats rendered neuropathic via the SNI Model; assay: Analgesic effect in spared nerve injury (SNI) model of neuropathic pain; type: in vivo, Sprague-Dawley rats; details: mean ± standard error of the mean
Experimental: (§1) Adult, male Sprague-Dawley rats were obtained from Charles River Laboratories (Wilmington, Mass.) and housed under standard conditions at the Institut Armand-Frappier (Laval, QC). Food and water were provided to experimental animals ad libitum, and rats weighed 175-200 grams at the time of assessment.
(§2) Compounds were prepared for intraperitoneal administration by dissolving them in a vehicle of hydroxypropyl methylcellulose (Sigma, St-Louis, Mo.); total volume of solution administered to rats was 10 ml/kg.
Neuropathic pain was induced in rats via spared nerve injury (SNI) of the left sciatic nerve in accordance with the procedure described by Decosterd & Woolf (Pain 2000; 87(2):149-58). Briefly, under isoflurane anesthesia, the sciatic nerve was exposed by dissection at the level of lower thigh, and a lesion of two of the three terminal branches of the nerve (tibial and common peroneal nerves) were performed leaving the remaining sural nerve intact. The incision was closed-up using simple suturing, and the rats allowed to recover.
(§3) After approximately two weeks, a stable allodynia to blunt mechanical stimuli was identified in the hind paw ipsilateral to the SNI or CCI, manifested as a reduction of 50% withdrawal threshold, and identified using the Von Frey technique, as described by Chaplan et al. (J. Neurosci. Methods 1994; 53(1):55-63), or the Hargreaves method, as described by Hargreaves et al. (Pain 1988; 32(1):77-88). Rats were considered to be fully neuropathic upon displaying a 50% withdrawal threshold of ≦3.5 grams consistently over the course of 72 hours.
(§4) Compounds were administered to neuropathic rats via acute local delivery in the intraperitoneal space or by oral gavage.

[2] = test system: mice subjected to the Minimal Clonic Seizure model; assay: Minimal Clonic Seizure test (psychomotor seizure model of partial epilepsy, 6 Hz); type: in vivo; details: 100 mg/kg intraperitoneally, 32 mA, 3 seconds
Experimental: Adult mice are pretreated with 100 mg/kg of test compound, acutely administered intraperitoneally. At varying times (15, 30, 60, 120 and 240 minutes post-treatment), animals are challenged with sufficient current (32 mA, 6 Hz, for 3 seconds) delivered through corneal electrodes to elicit a psychomotor seizure. Untreated mice will display seizures characterized by a minimal clonic phase followed by stereotyped, automatistic behaviors similar to the aura of human patients with partial seizures. Animals not displaying this behavior are considered protected (Barton et al., Epilepsy Res. 2001; 47(3):217-27). Results are expressed as the number of animal protected out of the number of animal tested over time.

[3] = test system: rats rendered neuropathic via the CCI model; assay: Analgesic effect in chronic constriction injury (CCI) model of neuropathic pain; type: in vivo, Sprague-Dawley rats; details: mean ± standard error of the mean
Experimental: as §1, §2
Alternatively, neuropathic pain was induced in rats via chronic constriction injury (CCI) of the left sciatic nerve with the procedure described by Bennett & Xie (Pain 1988; 33(1):87-107). Briefly, under isoflurane anaesthesia, the sciatic nerve was exposed by dissection at the level of the lower thigh and four loose ligatures (USP 4/0, Braun Melsaugen, FRG) were implanted around the nerve—with due attention not to interrupt the epineural circulation. The incision was closed-up using simple suturing, and the rats allowed to recover.
as §3, §4

Compound | Peak 50% withdrawal threshold [1] | Peak paw withdrawal latency [3] | further results
CCc1cncc(CC)c1CSc1nc(O)cc(C(F)(F)F)n1 [2-{[(3,5-diethylpyridin-4-yl)methyl]sulfanyl}-6-(trifluoromethyl)pyrimidin-4-ol] | 6.04 ± 1.17 g |  | 
Cc1cc(O)nc(SCc2c(Cl)ccc(Cl)c2Cl)n1 [6-methyl-2-{[(2,3,6-trichlorophenyl)methyl]sulfanyl}pyrimidin-4-ol] | 6.24 ± 1.48 g |  | Protected Animals/tested animals ([2]; 15 minutes post-treatment): 1/4; Protected Animals/tested animals ([2]; 30 minutes post-treatment): 3/4; Protected Animals/tested animals ([2]; 60 minutes post-treatment): 2/4; Protected Animals/tested animals ([2]; 120 minutes post-treatment): 1/4; Protected Animals/tested animals ([2]; 240 minutes post-treatment): 0/4
CCc1ncccc1CSc1nc(C)cc(O)n1 [2-{[(2-ethylpyridin-3-yl)methyl]sulfanyl}-6-methylpyrimidin-4-ol] |  | 10.46 ± 1.16 s | 
Cc1cc(O)nc(SCc2nn(C)cc2Cl)n1 [2-{[(4-chloro-1-methyl-1H-pyrazol-3-yl)methyl]sulfanyl}-6-methylpyrimidin-4-ol] |  | 11.98 ± 1.71 s | 
Cc1cc(O)nc(SCc2c(Cl)ccnc2Cl)n1 [2-{[(2,4-dichloropyridin-3-yl)methyl]sulfanyl}-6-methylpyrimidin-4-ol] | 7.74 ± 2.13 g |  | 
Oc1cc(C(F)(F)F)nc(SCc2c(Cl)cncc2Cl)n1 [2-{[(3,5-dichloropyridin-4-yl)methyl]sulfanyl}-6-(trifluoromethyl)pyrimidin-4-ol] | 5.77 ± 1.01 g | 11.7 ± 1.43 s | 
Cc1cc(O)nc(SCc2c(Cl)cncc2Cl)n1 [2-{[(3,5-dichloropyridin-4-yl)methyl]sulfanyl}-6-methylpyrimidin-4-ol] | 9.13 ± 1.60 g | 14.49 ± 1.24 s | Protected Animals/tested animals ([2]; 15 minutes post-treatment): 3/4; Protected Animals/tested animals ([2]; 30 minutes post-treatment): 3/4; Protected Animals/tested animals ([2]; 60 minutes post-treatment): 3/4; Protected Animals/tested animals ([2]; 120 minutes post-treatment): 1/4; Protected Animals/tested animals ([2]; 240 minutes post-treatment): 0/4
CCc1cncc(Cl)c1CSc1nc(C)cc(O)n1 [2-{[(3-chloro-5-ethylpyridin-4-yl)methyl]sulfanyl}-6-methylpyrimidin-4-ol] | 8.73 ± 1.75 g |  | 
CCc1ncsc1CSc1nc(O)cc(C(F)(F)F)n1 [Example 164, 2-{[(4-ethyl-1,3-thiazol-5-yl)methyl]sulfanyl}-6-(trifluoromethyl)pyrimidin-4-ol] |  | 10.45 ± 0.47 s | 
